Results on three compounds are retold here after patent US9901525B2, “External use skin composition, containing Lentinula edodes-derived ergosterol” (Amorepacific Corporation, priority 2013, dated 2018).

Data set [1] relates to Melan-a cell. The experiment in a line: Cytotoxic test (MTT assay), survival rate of cells. To be noted: 50 ppm, melan-a cells (FIG. 2). It counts as cell-based, mouse. Here is the method: (§1) Melanin-forming cell (melanocyte) derived from C57BL/6J mouse, melan-a cell was cultured by using RPMI-1640 medium (Lonza, USA) with 10% FBS (Fetal Bovine Serum; bovine fetal serum) and 50 U/ml penicillin, 50 μg/ml streptomycin under the condition of 37° C., 10% CO2 and then used in the following experiment.
Melan-a cell cultured by the method of the Reference Example 2 was seeded on 96 well plates so as to be 1.0×10^4 of cell number and then, cultured for 24 hours. […] Absorbance (OD 570) was determined by using microplate reader (Product Name: Synergy 2 (BioTek)), and a survival rate of the cell was determined by comparing it with the control. […]
The method similar to the Experimental Example 1 was used, except that 50 ppm arbutin, Lentinula edodes extracts (12.5, 25, 50, 100 ppm) were used as the sample treated. Absorbance (OD 570) was measured by using microplate reader (Product Name: Synergy 2 (BioTek)), and a survival rate of the cell was determined by comparing it with the control. […]

The test system of data set [2] is Melan-a cell. Put plainly: Melanin analysis of melan-a cell (melanin content). It counts as cell-based, mouse. Conditions: melan-a cells (FIG. 3); for effect inhibiting the melanin production: 10 μM, corresponds to 4.44 ppm; for effect of inhibiting melanin production: 0.1, 1, 10 μM, 6 days; for skin whitening effect compared with positive controls (50 ppm arbutin, 50 ppm kojic acid): much less amount than the controls. Here is the method: as §1
The Melan-a cell cultured by the method of the Reference Example 2 was seeded on 48 well plate so as to be 1.5×10^4 of the cell number per well and then, cultured for 24 hours. Then, a new medium containing various concentrations (0.1, 1, 10 μM) of 3β, 5α-dihydroxy-6β-methoxy-(22E, 24R)-ergosta-7,22-diene or 3β, 5α, 9α-trihydroxy-(22E, 24R)-ergosta-7,22-diene-6-one isolated from the Reference Example 1 was treated. At this time, in order to compare it, a medium containing 50 ppm of arbutin or 50 ppm of kojic acid was used as a positive control. The medium was treated for 6 days, and after three days, a new medium was exchanged. After 6 days, the cell was washed with DPBS and then, was added with 2N NaOH (10% DMSO) and dissolved at 60° C. for 1 hour. The cell lysate dissolved was moved into 96 well plates and then its absorbance (OD 475) was measured. The measured value was calculated as melanin content from the standard curve for the synthesized melanin, and the melanin content calculated was standardized by the total amount of the protein of each experimental group, and then it was compared with the control to estimate the efficiency. The results are represented in FIG. 3.
In addition, in order to compare the whitening effect of 3β, 5α-dihydroxy-6β-methoxy-(22E, 24R)-ergosta-7,22-diene and 3β, 5α, 9α-trihydroxy-(22E, 24R)-ergosta-7,22-diene-6-one with that of Lentinula edodes extract, the separate melan-a cell melanin assay experiment was performed with the same method as the above. At this time, 50 ppm of arbutin or 12.5, 25, 50, 100 ppm of ethanol extracts of Lentinula edodes obtained from the Reference Example 1 were used, and used by containing them in the medium for the cell culture. The results were represented in FIG. 4.

For `OC[C@H]1O[C@@H](Oc2ccc(O)cc2)[C@H](O)[C@@H](O)[C@@H]1O` [arbutin], the “effect on the cell growth (survival rate, MTT)” value with Melan-a cell [1] is recorded as “did not affect the cell growth”.

`CC(C)[C@@H](C)/C=C/[C@@H](C)[C@H]1CC[C@H]2C3=CC(=O)[C@@]4(O)C[C@@H](O)CC[C@]4(C)[C@@]3(O)CC[C@]12C` [3β, 5α, 9α-trihydroxy-(22E, 24R)-ergosta-7,22-diene-6-one]: in the data set on Melan-a cell [2], the “effect inhibiting the melanin production” value is “remarkable effect inhibiting the melanin production”; the “effect of inhibiting melanin production” value is listed as “exhibits the effect of inhibiting a melanin production”; the “skin whitening effect compared with positive controls (50 ppm arbutin, 50 ppm kojic acid)” value was “remarkably excellent skin whitening effect than albumin and kojic acid”.

For the compound `CO[C@@H]1C=C2[C@@H]3CC[C@H]([C@H](C)/C=C/[C@H](C)C(C)C)[C@@]3(C)CC[C@@H]2[C@@]2(C)CC[C@H](O)C[C@]12O` [3β, 5α-dihydroxy-6β-methoxy-(22E, 24R)-ergosta-7,22-diene], in the data set with Melan-a cell [2], the “effect inhibiting the melanin production” value was “remarkable effect inhibiting the melanin production”; the “effect of inhibiting melanin production” value was “exhibits the effect of inhibiting a melanin production”; the “skin whitening effect compared with positive controls (50 ppm arbutin, 50 ppm kojic acid)” value is “remarkably excellent skin whitening effect than albumin and kojic acid”.
